Experimental data taken from patent publication US9926302B2, “Heteroaryl substituted heterocyclyl sulfones” (priority 2014, dated 2018).

The compounds below were run against T1, Human CaV2.2 channels (Homo sapiens, UniProt Q00975) (assay: Fluorescence assay for CaV2.2 channels using potassium depolarization to induce channel opening (FLIPR, Fluo 4)). Details: 3 μM test compound; alternative assay buffer 30 mM KCl (inactivated channel state); HEK293 cells stably expressing human CaV2.2.
T1 construct: expressed in transfected cells
T1 sequence (P54289 947-1103): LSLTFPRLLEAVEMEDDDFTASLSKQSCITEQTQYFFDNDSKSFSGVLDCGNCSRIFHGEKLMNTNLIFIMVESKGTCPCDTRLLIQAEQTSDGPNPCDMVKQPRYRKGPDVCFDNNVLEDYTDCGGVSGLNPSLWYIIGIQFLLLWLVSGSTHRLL
T1 sequence (P54289 25-946): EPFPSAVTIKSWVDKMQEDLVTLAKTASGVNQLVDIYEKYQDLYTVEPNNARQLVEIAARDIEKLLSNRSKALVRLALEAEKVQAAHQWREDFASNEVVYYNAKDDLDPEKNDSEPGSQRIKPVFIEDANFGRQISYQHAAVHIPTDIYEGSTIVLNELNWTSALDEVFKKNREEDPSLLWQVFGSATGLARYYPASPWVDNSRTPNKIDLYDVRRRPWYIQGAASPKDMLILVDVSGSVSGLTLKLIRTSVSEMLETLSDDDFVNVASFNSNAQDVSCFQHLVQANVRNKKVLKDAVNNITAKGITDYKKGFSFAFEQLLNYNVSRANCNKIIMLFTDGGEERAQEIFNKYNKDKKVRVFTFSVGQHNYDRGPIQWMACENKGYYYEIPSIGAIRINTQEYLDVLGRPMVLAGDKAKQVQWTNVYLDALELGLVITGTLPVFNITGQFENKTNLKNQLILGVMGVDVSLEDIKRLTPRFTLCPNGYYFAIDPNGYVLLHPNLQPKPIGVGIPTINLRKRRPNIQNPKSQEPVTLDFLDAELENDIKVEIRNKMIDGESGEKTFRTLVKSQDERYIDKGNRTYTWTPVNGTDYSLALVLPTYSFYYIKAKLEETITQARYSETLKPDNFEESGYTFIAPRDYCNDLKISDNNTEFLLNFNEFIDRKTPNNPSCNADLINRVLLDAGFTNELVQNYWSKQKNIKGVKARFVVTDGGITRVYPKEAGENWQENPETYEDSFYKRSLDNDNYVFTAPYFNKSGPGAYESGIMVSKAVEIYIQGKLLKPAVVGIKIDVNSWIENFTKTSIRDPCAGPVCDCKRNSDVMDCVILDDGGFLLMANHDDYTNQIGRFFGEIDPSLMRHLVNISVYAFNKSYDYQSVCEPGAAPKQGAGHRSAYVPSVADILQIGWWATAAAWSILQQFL
T1 sequence (P54284 whole entry, further chain): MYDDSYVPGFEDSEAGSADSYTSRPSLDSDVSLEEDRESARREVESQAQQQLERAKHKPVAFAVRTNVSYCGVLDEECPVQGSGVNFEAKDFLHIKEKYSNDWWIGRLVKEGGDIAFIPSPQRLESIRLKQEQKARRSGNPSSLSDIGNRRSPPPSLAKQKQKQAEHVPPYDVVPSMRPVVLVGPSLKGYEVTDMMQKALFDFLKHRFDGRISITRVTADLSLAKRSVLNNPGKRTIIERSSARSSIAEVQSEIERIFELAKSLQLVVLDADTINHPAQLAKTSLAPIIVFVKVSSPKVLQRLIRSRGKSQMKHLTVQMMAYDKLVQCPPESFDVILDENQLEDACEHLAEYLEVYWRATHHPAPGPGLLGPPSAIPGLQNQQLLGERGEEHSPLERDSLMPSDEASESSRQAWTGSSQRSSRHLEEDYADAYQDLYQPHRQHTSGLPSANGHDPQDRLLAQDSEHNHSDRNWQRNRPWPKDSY
T1 sequence (Q00975 whole entry): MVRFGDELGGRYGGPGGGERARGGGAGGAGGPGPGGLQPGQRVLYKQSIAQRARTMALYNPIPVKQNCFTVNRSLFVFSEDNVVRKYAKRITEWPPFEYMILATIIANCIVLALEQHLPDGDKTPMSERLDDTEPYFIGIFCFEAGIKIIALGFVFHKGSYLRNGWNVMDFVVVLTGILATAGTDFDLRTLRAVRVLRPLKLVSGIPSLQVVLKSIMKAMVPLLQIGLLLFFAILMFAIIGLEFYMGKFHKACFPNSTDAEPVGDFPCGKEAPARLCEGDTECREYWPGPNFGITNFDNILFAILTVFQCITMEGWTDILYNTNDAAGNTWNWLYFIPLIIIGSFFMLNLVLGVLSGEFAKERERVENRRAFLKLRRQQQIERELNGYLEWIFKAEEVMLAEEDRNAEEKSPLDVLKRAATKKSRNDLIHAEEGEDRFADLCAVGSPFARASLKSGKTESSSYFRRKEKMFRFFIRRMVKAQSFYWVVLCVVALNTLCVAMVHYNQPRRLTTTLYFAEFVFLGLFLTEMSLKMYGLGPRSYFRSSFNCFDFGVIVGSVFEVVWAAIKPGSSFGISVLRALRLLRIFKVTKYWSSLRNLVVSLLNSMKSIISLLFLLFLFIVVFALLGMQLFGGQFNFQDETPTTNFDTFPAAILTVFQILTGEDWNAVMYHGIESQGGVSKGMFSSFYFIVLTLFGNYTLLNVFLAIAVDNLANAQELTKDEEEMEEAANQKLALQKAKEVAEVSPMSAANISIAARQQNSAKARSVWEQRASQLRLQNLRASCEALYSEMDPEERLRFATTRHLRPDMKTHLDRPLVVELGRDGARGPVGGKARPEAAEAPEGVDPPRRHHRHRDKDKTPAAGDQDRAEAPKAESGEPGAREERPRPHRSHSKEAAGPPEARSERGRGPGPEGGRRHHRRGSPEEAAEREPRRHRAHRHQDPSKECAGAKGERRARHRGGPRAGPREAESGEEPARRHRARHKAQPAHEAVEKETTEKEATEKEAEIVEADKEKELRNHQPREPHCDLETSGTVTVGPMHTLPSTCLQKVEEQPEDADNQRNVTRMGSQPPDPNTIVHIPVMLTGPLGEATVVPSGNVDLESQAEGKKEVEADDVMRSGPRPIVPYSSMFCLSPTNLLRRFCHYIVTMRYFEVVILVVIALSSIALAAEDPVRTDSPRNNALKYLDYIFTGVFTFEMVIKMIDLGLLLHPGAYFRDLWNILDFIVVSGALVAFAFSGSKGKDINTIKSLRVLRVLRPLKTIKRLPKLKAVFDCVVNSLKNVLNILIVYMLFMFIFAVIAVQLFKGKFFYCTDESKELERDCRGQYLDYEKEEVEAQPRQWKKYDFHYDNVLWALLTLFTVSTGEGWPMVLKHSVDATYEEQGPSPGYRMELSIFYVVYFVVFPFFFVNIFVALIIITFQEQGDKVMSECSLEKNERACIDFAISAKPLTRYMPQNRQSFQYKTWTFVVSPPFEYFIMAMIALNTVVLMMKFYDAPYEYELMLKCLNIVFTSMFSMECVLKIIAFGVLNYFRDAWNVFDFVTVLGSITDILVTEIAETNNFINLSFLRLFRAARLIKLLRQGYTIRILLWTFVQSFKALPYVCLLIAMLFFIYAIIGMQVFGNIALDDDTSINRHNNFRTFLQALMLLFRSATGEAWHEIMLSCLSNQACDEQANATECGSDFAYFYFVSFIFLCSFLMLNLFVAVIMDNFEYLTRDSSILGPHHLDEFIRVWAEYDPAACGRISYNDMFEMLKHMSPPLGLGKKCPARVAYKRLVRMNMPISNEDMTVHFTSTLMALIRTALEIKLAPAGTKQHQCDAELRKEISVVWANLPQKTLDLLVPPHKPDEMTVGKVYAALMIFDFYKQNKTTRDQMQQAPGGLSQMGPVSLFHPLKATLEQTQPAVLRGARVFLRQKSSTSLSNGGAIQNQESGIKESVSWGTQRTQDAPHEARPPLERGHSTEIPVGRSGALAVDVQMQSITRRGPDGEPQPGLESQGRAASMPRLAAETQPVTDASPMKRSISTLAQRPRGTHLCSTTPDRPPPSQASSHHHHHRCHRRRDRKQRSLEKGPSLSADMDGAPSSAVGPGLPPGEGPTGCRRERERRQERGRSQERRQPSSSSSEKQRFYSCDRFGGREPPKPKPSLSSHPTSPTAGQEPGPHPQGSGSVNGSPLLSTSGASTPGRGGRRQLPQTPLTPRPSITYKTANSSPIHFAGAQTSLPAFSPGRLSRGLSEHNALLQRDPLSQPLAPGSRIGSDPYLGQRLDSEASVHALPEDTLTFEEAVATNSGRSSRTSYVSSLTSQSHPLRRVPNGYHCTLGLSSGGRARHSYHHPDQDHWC
Type: cell-based
In short: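 HEK293 cells stably co-expressing CaV2.2 with alpha2-delta and beta subunits plus Kir2.3, loaded with 2 μM Fluo 4 and pre-incubated 15 min at 25° C with compound in 1 mM or 30 mM KCl buffer (pH 7.4; latter promotes inactivated state). Depolarized by KCl addition; peak fluorescence amplitude normalized to baseline gives inhibition.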
In the case of `CC1(S(=O)(=O)c2cccc(C(F)(F)F)c2)CCOC(c2cncc(S(C)(=O)=O)c2)C1` (stereo not shown) [SC-100, 3-Methylsulfonyl-5-[4-methyl-4-[[3-(trifluoromethyl)phenyl]sulfonyl]-tetrahydro-pyran-2-yl]-pyridine], the “Activity Category: %-Inhib (CaV2.2) @3 μM @30 mM KCl” value (“Activity Category: %-Inhib” for short) is reported as “C (%-Inhibition >40% up to ≤75%)”. In the case of `Cc1cc(S(C)(=O)=O)cnc1C1CC(C)(S(=O)(=O)c2cc(F)cc(C(F)(F)F)c2)CCO1` (stereo not shown) [SC-444, 2-[4-[[3-Fluoro-5-(trifluoromethyl)-phenyl]sulfonyl]-4-methyl-tetrahydro-pyran-2-yl]-3-methyl-5-methylsulfonyl-pyridine], the “Activity Category: %-Inhib” value is reported as “B (%-Inhibition >75% up to ≤95%)”. `CC1(S(=O)(=O)c2cccc(C(F)(F)F)c2)CCOC(c2ccc(Cl)cn2)C1` (stereo not shown) [SC-244, 5-Chloro-2-[4-methyl-4-[[3-(trifluoromethyl)phenyl]sulfonyl]-tetrahydro-pyran-2-yl]-pyridine] was tested, and the “Activity Category: %-Inhib” value was “B (%-Inhibition >75% up to ≤95%)”. For `CC1(S(=O)(=O)c2cccc(C(F)(F)F)c2)CCOC(c2ccc(S(C)(=O)=O)nc2)C1` (stereo not shown) [SC-338, 2-Methylsulfonyl-5-[4-methyl-4-[[3-(trifluoromethyl)phenyl]sulfonyl]-tetrahydro-pyran-2-yl]-pyridine], the “Activity Category: %-Inhib” value was “B (%-Inhibition >75% up to ≤95%)”. `COc1cc(F)c(C2CC(C)(S(=O)(=O)c3cccc(C(F)(F)F)c3)CCO2)cn1` (stereo not shown) [SC-258, 4-Fluoro-2-methoxy-5-[4-methyl-4-[[3-(trifluoromethyl)phenyl]sulfonyl]-tetrahydro-pyran-2-yl]-pyridine] was tested, and the “Activity Category: %-Inhib” value was “A (%-Inhibition >95%)”. For `CC1(S(=O)(=O)c2cccc(OC(F)F)c2)CCOC(c2ncc(S(C)(=O)=O)cc2Cl)C1` (stereo not shown) [SC-437, 3-Chloro-2-[4-[[3-(difluoro-methoxy)-phenyl]sulfonyl]-4-methyl-tetrahydro-pyran-2-yl]-5-methylsulfonyl-pyridine], the “Activity Category: %-Inhib” value was “B (%-Inhibition >75% up to ≤95%)”. `Cc1cc(S(C)(=O)=O)cnc1C1CC(C)(S(=O)(=O)c2cccc(OC(F)(F)F)c2)CCO1` (stereo not shown) [SC-450, 3-Methyl-5-methylsulfonyl-2-[4-methyl-4-[[3-(trifluoromethyloxy)-phenyl]sulfonyl]-tetrahydro-pyran-2-yl]-pyridine] was tested, and the “Activity Category: %-Inhib” value was “C (%-Inhibition >40% up to ≤75%)”. `Cn1nc(S(C)(=O)=O)cc1C1CC(C)(S(=O)(=O)c2cccc(C(F)(F)F)c2)CCO1` (stereo not shown) [SC-430, 1-Methyl-3-methylsulfonyl-5-[4-methyl-4-[[3-(trifluoromethyl)phenyl]sulfonyl]-tetrahydro-pyran-2-yl]-1H-pyrazole] was tested, and the “Activity Category: %-Inhib” value was “B (%-Inhibition >75% up to ≤95%)”. With `CN(C)c1ccc(C2CC(C)(S(=O)(=O)c3cccc(C(F)(F)F)c3)CCO2)cn1` (stereo not shown) [SC-331, Dimethyl-[5-[4-methyl-4-[[3-(trifluoromethyl)phenyl]sulfonyl]-tetrahydro-pyran-2-yl]-pyridin-2-yl]-amine] the “Activity Category: %-Inhib” value was “A (%-Inhibition >95%)”. For `CC1(S(=O)(=O)c2cccc(C(F)(F)F)c2)CCOC(c2nnc(C3CC3)o2)C1` (single isomer, unassigned) [SC-128, 2-Cyclopropyl-5-[4-methyl-4-[[3-(trifluoromethyl)phenyl]sulfonyl]-tetrahydro-pyran-2-yl]-[1,3,4]oxadiazole], the “Activity Category: %-Inhib” value was “B (%-Inhibition >75% up to ≤95%)”. For `CC1(S(=O)(=O)c2cccc(C(F)(F)F)c2)CCOC(c2cncc(S(C)(=O)=O)c2)C1` (stereo not shown) [SC-101, 3-Methylsulfonyl-5-[4-methyl-4-[[3-(trifluoromethyl)phenyl]sulfonyl]-tetrahydro-pyran-2-yl]-pyridine], the “Activity Category: %-Inhib” value was “B (%-Inhibition >75% up to ≤95%)”. In the case of `CC1(S(=O)(=O)c2cccc(C(F)(F)F)c2)CCOC(c2nnc(C(F)F)o2)C1` (single isomer, unassigned) [SC-123, 2-(Difluoro-methyl)-5-[4-methyl-4-[[3-(trifluoromethyl)phenyl]sulfonyl]-tetrahydro-pyran-2-yl]-[1,3,4]oxadiazole], the “Activity Category: %-Inhib” value is reported as “B (%-Inhibition >75% up to ≤95%)”. For `CCC1(S(=O)(=O)c2cccc(C(F)(F)F)c2)CCOC(c2ccc(C)nc2C)C1` (stereo not shown) [SC-318, 3-[4-Ethyl-4-[[3-(trifluoromethyl)phenyl]sulfonyl]-tetrahydro-pyran-2-yl]-2,6-dimethyl-pyridine], the “Activity Category: %-Inhib” value was “B (%-Inhibition >75% up to ≤95%)”. For `CC1(S(=O)(=O)c2cccc(C(F)(F)F)c2)CCOC(c2ncc(S(C)(=O)=O)cc2OC(F)F)C1` (stereo not shown) [SC-269, 3-(difluoromethoxy)-2-(4-methyl-4-((3-(trifluoromethyl)phenyl)sulfonyl)tetrahydro-2H-pyran-2-yl)-5-(methylsulfonyl)pyridine], the “Activity Category: %-Inhib” value was “A (%-Inhibition >95%)”. With `CC1(S(=O)(=O)c2cccc(OC(F)(F)F)c2)CCOC(c2ncc(S(C)(=O)=O)cc2Cl)C1` (stereo not shown) [SC-219, 3-Chloro-5-methylsulfonyl-2-[4-methyl-4-[[3-(trifluoromethyloxy)-phenyl]sulfonyl]-tetrahydro-pyran-2-yl]-pyridine] the “Activity Category: %-Inhib” value was “A (%-Inhibition >95%)”.

Same assay, conditions: HEK293, 3 μM test compound; alternative assay buffer 30 mM KCl (inactivated channel state); HEK293 cells stably expressing human CaV2.2; read-out: Activity Category: %-Inhib (CaV2.2) @3 μM @30 mM KCl
With `COc1cc(OC)c(C2CC(C)(S(=O)(=O)c3cccc(C(F)(F)F)c3)CCO2)cn1` (racemic) [SC-247, 2,4-Dimethoxy-5-[4-methyl-4-[[3-(trifluoromethyl)phenyl]sulfonyl]-tetrahydro-pyran-2-yl]-pyridine] the inhibition at 3 µM was 75 to 95%. `COc1cc(O)c(C2CC(C)(S(=O)(=O)c3cccc(C(F)(F)F)c3)CCO2)cn1` (stereo not shown) [SC-251, 2-Methoxy-5-[4-methyl-4-[[3-(trifluoromethyl)phenyl]sulfonyl]-tetrahydro-pyran-2-yl]-pyridin-4-ol] showed an inhibition at 3 µM of 40 to 75%. `CC1(S(=O)(=O)c2cccc(C(F)(F)F)c2)CCOC(c2cncc(C3CC3)c2)C1` (stereo not shown) [SC-325, 3-Cyclopropyl-5-[4-methyl-4-[[3-(trifluoromethyl)phenyl]sulfonyl]-tetrahydro-pyran-2-yl]-pyridine] was tested, and the inhibition at 3 µM was > 95%. Compound `CCC1(S(=O)(=O)c2cccc(C(F)(F)F)c2)CCOC(c2cccc(C)n2)C1` (racemic) [SC-303, 2-[4-Ethyl-4-[[3-(trifluoromethyl)phenyl]sulfonyl]-tetrahydro-pyran-2-yl]-6-methyl-pyridine] has an inhibition at 3 µM of 75 to 95%. Work on `CC1(S(=O)(=O)c2cccc(C(F)(F)F)c2)CCOC(c2ccc(C3CC3)nc2)C1` (stereo not shown) [SC-346, 2-Cyclopropyl-5-[4-methyl-4-[[3-(trifluoromethyl)phenyl]sulfonyl]-tetrahydro-pyran-2-yl]-pyridine] yielded an inhibition at 3 µM of 75 to 95%. `Cn1nc(C2CC2)cc1C1CC(C)(S(=O)(=O)c2cccc(C(F)(F)F)c2)CCO1` (stereo not shown) [SC-431, 3-Cyclopropyl-1-methyl-5-[4-methyl-4-[[3-(trifluoromethyl)phenyl]sulfonyl]-tetrahydro-pyran-2-yl]-1H-pyrazole] was tested, and the inhibition at 3 µM was 75 to 95%. Compound `COc1cnc(C2CC(C)(S(=O)(=O)c3cccc(C(F)(F)F)c3)CCO2)cn1` (stereo not shown) [SC-415, 2-Methoxy-5-[4-methyl-4-[[3-(trifluoromethyl)phenyl]sulfonyl]-tetrahydro-pyran-2-yl]-pyrazine] has an inhibition at 3 µM of 75 to 95%. With `CC1(S(=O)(=O)c2cccc(C(F)(F)F)c2)CCOC(c2ncc(OC(F)F)cc2Cl)C1` (stereo not shown) [SC-427, 3-Chloro-5-(difluoro-methoxy)-2-[4-methyl-4-[[3-(trifluoromethyl)phenyl]sulfonyl]-tetrahydro-pyran-2-yl]-pyridine] the inhibition at 3 µM was > 95%. Work on `CN(C)c1ccc(C2CC(C)(S(=O)(=O)c3cccc(C(F)(F)F)c3)CCO2)cn1` (stereo not shown) [SC-330, Dimethyl-[5-[4-methyl-4-[[3-(trifluoromethyl)phenyl]sulfonyl]-tetrahydro-pyran-2-yl]-pyridin-2-yl]-amine] yielded an inhibition at 3 µM of 75 to 95%. With `CC1(S(=O)(=O)c2cccc(C(F)(F)F)c2)CCOC(c2ncc(OC(F)F)cc2Cl)C1` (racemic) [SC-438, 3-Chloro-5-(difluoro-methoxy)-2-[4-methyl-4-[[3-(trifluoromethyl)phenyl]sulfonyl]-tetrahydro-pyran-2-yl]-pyridine] the inhibition at 3 µM was > 95%. Compound `CC1(S(=O)(=O)c2cccc(C(F)(F)F)c2)CCOC(c2ncc(C(F)F)cc2Cl)C1` (stereo not shown) [SC-236, 3-Chloro-5-(difluoro-methyl)-2-[4-methyl-4-[[3-(trifluoromethyl)phenyl]sulfonyl]-tetrahydro-pyran-2-yl]-pyridine] has an inhibition at 3 µM of 75 to 95%. Compound `COCCOc1ccc(C2CC(C)(S(=O)(=O)c3cccc(C(F)(F)F)c3)CCO2)cn1` (stereo not shown) [SC-404, 2-(2-Methoxy-ethoxy)-5-[4-methyl-4-[[3-(trifluoromethyl)phenyl]sulfonyl]-tetrahydro-pyran-2-yl]-pyridine] has an inhibition at 3 µM of 75 to 95%. With `CC1(S(=O)(=O)c2cccc(C(F)(F)F)c2)CCOC(COc2ccc(C3CC3)nc2)C1` (single isomer, unassigned) [SC-118, 2-Cyclopropyl-5-[[4-methyl-4-[[3-(trifluoromethyl)phenyl]sulfonyl]-tetrahydro-pyran-2-yl]-methoxy]-pyridine] the inhibition at 3 µM was > 95%. `Cc1cc(S(C)(=O)=O)cnc1C1CC(C)(S(=O)(=O)c2cccc(C(F)(F)F)c2)CCO1` (racemic) [SC-441, 3-Methyl-5-methylsulfonyl-2-[4-methyl-4-[[3-(trifluoromethyl)phenyl]sulfonyl]-tetrahydro-pyran-2-yl]-pyridine] was tested, and the inhibition at 3 µM was 75 to 95%. For `CC1(S(=O)(=O)c2cccc(C(F)(F)F)c2)CCOC(COc2ccc(C(F)(F)F)nc2)C1` (stereo not shown) [SC-208, 5-[[4-Methyl-4-[[3-(trifluoromethyl)phenyl]sulfonyl]-tetrahydro-pyran-2-yl]-methoxy]-2-(trifluoromethyl)-pyridine], the inhibition at 3 µM was 75 to 95%. `Cc1cc(S(C)(=O)=O)cnc1C1CC(C)(S(=O)(=O)c2cccc(OC(F)(F)F)c2)CCO1` (racemic) [SC-451, 3-Methyl-5-methylsulfonyl-2-[4-methyl-4-[[3-(trifluoromethyloxy)-phenyl]sulfonyl]-tetrahydro-pyran-2-yl]-pyridine] was tested, and the inhibition at 3 µM was 40 to 75%.
